These results are taken from ChEMBL document CHEMBL1148616, “Synthesis and structure-activity relationships of novel poly(ADP-ribose) polymerase-1 inhibitors” (Bioorg Med Chem Lett, 2006).

Sequence of Poly [ADP-ribose] polymerase 1 (P09874 whole entry): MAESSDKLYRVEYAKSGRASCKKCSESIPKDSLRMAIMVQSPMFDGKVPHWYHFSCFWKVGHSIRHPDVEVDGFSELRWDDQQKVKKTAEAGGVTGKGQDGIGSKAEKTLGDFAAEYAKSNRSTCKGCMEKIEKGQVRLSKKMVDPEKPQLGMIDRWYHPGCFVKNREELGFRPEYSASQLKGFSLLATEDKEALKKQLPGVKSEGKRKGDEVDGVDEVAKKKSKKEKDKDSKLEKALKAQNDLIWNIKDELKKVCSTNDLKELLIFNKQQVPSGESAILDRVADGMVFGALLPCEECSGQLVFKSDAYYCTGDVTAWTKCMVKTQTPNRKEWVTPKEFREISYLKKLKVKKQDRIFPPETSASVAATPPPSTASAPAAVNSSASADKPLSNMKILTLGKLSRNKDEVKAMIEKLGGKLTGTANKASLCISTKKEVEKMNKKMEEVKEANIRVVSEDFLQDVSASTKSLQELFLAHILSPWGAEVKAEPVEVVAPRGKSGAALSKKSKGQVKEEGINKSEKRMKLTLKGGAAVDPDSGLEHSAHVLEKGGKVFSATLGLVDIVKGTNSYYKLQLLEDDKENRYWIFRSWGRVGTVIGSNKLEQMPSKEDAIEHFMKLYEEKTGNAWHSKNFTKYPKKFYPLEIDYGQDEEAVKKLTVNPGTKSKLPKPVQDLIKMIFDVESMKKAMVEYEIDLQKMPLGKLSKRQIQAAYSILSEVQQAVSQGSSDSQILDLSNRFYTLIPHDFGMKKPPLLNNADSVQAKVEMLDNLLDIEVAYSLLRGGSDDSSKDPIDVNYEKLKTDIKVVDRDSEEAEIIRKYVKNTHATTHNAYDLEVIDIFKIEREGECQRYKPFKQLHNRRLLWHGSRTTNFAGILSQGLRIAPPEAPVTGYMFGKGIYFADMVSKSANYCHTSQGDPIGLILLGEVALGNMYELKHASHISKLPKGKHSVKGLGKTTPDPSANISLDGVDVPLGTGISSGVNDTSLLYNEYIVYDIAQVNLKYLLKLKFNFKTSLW

This test concerns the target Poly [ADP-ribose] polymerase 1 (Homo sapiens, UniProt P09874).
Description: Inhibitory activity against human PARP1 expressed in PC12 cells
As a reminder, the IC50 is the concentration that gives 50% inhibition. In turn, `Nc1ccc2c3c(cccc13)C(=O)NC2=O` showed an IC50 of 0.026 µM.

Regarding `O=C1NC(=O)c2c1c1c(c3oc4ccccc4c23)CCC1`, the IC50 was above 10 µM.

Turning to `O=C1NC(=O)c2c1c1c(c3sc4ccccc4c23)CCC1`, the IC50 is above 10 µM.

As for `O=C1NC(=O)c2c1c1ccccc1c1[nH]c3ccccc3c21`, the IC50 was above 10 µM.

`CCCc1c2c(c3c([nH]c4ccccc43)c1CC)C(=O)NC2=O` yielded an IC50 above 10 µM.
